Patent US20230372498A1, “PLK1 SELECTIVE DEGRADATION INDUCING COMPOUND” (UPPTHERA, priority 2020, published 2023)
Like-named read-outs stand apart in the source and are kept apart here.

Molecular target: T1, PLK1 (Homo sapiens, UniProt P53350)
T1 construct: endogenous in cells; host or cells: HeLa
Experiment: PLK1 protein degradation in HeLa cells, Western blotting (PLK1/GAPDH ratio)
Format: cell-based
Conditions: 6 hours compound incubation; for DC50: measured only if the grade of Dmax is A or B; for Dmax: thymidine block and release, 10 points three-fold from 3 μM, PLK1 to GAPDH ratio
How it was run: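 Thymidine-synchronised HeLa cells (2 mM, 24 h) released 4 h into complete medium, then treated 6 h with compound in 10-point 3-fold dilutions from 3 μM. RIPA lysates (15 μg protein) run on SDS-PAGE; PLK1 Western blot normalised to GAPDH.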

T1 sequence (P53350 whole entry): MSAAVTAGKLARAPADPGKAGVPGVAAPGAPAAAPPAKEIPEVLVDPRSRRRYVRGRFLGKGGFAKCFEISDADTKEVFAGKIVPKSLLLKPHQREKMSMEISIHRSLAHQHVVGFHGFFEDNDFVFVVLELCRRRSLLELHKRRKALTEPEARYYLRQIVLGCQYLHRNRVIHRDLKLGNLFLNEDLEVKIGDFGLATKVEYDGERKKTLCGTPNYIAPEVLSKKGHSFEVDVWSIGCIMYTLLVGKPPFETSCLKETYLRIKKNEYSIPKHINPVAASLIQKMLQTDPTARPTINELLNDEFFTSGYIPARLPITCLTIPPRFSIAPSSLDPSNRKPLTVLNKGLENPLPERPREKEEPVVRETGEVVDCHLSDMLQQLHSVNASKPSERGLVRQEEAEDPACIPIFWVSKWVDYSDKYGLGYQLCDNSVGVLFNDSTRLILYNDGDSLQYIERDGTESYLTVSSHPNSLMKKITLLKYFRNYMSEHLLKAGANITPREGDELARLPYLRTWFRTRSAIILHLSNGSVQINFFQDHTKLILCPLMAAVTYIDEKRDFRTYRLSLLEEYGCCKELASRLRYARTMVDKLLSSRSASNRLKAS

Row | DC50 [µM] | Dmax (read-out: Dmax) [%] | Structure (SMILES) | Dmax
1 | ≤ 0.5 | 60 to 80 | COc1cc(C(=O)NCCOCCOCCNc2ccc3c(c2)C(=O)N(C2CCC(=O)NC2=O)C3=O)c(F)cc1Nc1ncc2c(n1)N(C1CCCC1)CC(F)(F)C(=O)N2C (stereo not drawn) [Compound 163, 4-((9-cyclopentyl-7,7-difluoro-5-methyl-6-oxo-6,7,8,9-tetrahydro-5H-pyrimido[4,5-b][1,4]diazepin-2-yl)amino)-N-(2-(2-(2-((2-(2,6-dioxopiperidin-3-yl)-1,3-dioxoisoindolin-5-yl)amino)ethoxy)ethoxy)ethyl)-2-fluoro-5-methoxybenzamide] | –
2 | ≤ 0.5 | 60 to 80 | COc1cc(C(=O)NCCCCCCc2cccc3c2CN(C2CCC(=O)NC2=O)C3=O)c(F)cc1Nc1ncc2c(n1)N(C1CCCC1)CC(F)(F)C(=O)N2C (stereo not drawn) [Compound 164, 4-((9-cyclopentyl-7,7-difluoro-5-methyl-6-oxo-6,7,8,9-tetrahydro-5H-pyrimido[4,5-b][1,4]diazepin-2-yl)amino)-N-(6-(2-(2,6-dioxopiperidin-3-yl)-1-oxoisoindolin-4-yl)hexyl)-2-fluoro-5-methoxybenzamide] | –
3 | – | – | COc1cc(C(=O)NC2CCN(CCOCCOCCOCCOCC(=O)N[C@H](C(=O)N3C[C@H](O)C[C@H]3C(=O)NCc3ccc(-c4scnc4C)cc3)C(C)(C)C)CC2)c(F)cc1Nc1ncc2c(n1)N(C1CCCC1)CC(F)(F)C(=O)N2C [Example 82] | C (C: less than 60%)
4 | – | – | COc1cc(C(=O)NC2CCN(CCOCCOCCOCCOCCOCC(=O)N[C@H](C(=O)N3C[C@H](O)C[C@H]3C(=O)NCc3ccc(-c4scnc4C)cc3)C(C)(C)C)CC2)c(F)cc1Nc1ncc2c(n1)N(C1CCCC1)CC(F)(F)C(=O)N2C [Example 83] | C (C: less than 60%)
5 | – | < 60 | COc1cc(C(=O)NC2CCN(CCOCCOc3cc(-c4scnc4C)ccc3CNC(=O)[C@@H]3C[C@@H](O)CN3C(=O)[C@@H](NC(=O)C3(F)CC3)C(C)(C)C)CC2)c(F)cc1Nc1ncc2c(n1)N(C1CCCC1)CC(F)(F)C(=O)N2C [Example 85, (2S,4R)—N-(2-(2-(2-(4-(4-((9-cyclopentyl-7,7-difluoro-5-methyl-6-oxo-6,7,8,9-tetrahydro-5H-pyrimido[4,5-b][1,4]diazepin-2-yl)amino)-2-fluoro-5-methoxybenzamido)piperidin-1-yl)ethoxy)ethoxy)-4-(4-methylthiazol-5-yl)benzyl)-1-((S)-2-(1-fluorocyclopropane-1-carboxamido)-3,3-dimethylbutanoyl)-4-hydroxypyrrolidine-2-carboxamide] | –
6 | – | < 60 | COc1cc(C(=O)NC2CCN(CCOCCOCCOCCOc3cc(-c4scnc4C)ccc3CNC(=O)[C@@H]3C[C@@H](O)CN3C(=O)[C@@H](NC(=O)C3(F)CC3)C(C)(C)C)CC2)c(F)cc1Nc1ncc2c(n1)N(C1CCCC1)CC(F)(F)C(=O)N2C [Example 87, (2S,4R)—N-(2-(2-(2-(2-(2-(4-(4-((9-cyclopentyl-7,7-difluoro-5-methyl-6-oxo-6,7,8,9-tetrahydro-5H-pyrimido[4,5-b][1,4]diazepin-2-yl)amino)-2-fluoro-5-methoxybenzamido)piperidin-1-yl)ethoxy)ethoxy)ethoxy)ethoxy)-4-(4-methylthiazol-5-yl)benzyl)-1-((S)-2-(1-fluorocyclopropane-1-carboxamido)-3,3-dimethylbutanoyl)-4-hydroxypyrrolidine-2-carboxamide] | –
7 | ≤ 0.5 | 60 to 80 | COc1cc(C(=O)NC2CCN(CCCCCCCCOc3cc(-c4scnc4C)ccc3CNC(=O)[C@@H]3C[C@@H](O)CN3C(=O)[C@@H](NC(=O)C3(F)CC3)C(C)(C)C)CC2)c(F)cc1Nc1ncc2c(n1)N(C1CCCC1)CC(F)(F)C(=O)N2C [Example 89, (2S,4R)—N-(2-((8-(4-(4-((9-cyclopentyl-7,7-difluoro-5-methyl-6-oxo-6,7,8,9-tetrahydro-5H-pyrimido[4,5-b][1,4]diazepin-2-yl)amino)-2-fluoro-5-methoxybenzamido)piperidin-1-yl)octyl)oxy)-4-(4-methylthiazol-5-yl)benzyl)-1-((S)-2-(1-fluorocyclopropane-1-carboxamido)-3,3-dimethylbutanoyl)-4-hydroxypyrrolidine-2-carboxamide] | –
8 | ≤ 0.5 | 60 to 80 | CCOc1cc(C(=O)NC2CCN(CCOCCOCCNc3cccc4c3C(=O)N(C3CCC(=O)NC3=O)C4=O)CC2)c(F)cc1Nc1ncc2c(n1)N(C1CCCC1)CC(F)(F)C(=O)N2C (stereo not drawn) [Example 90, 4-((9-cyclopentyl-7,7-difluoro-5-methyl-6-oxo-6,7,8,9-tetrahydro-5H-pyrimido[4,5-b][1,4]diazepin-2-yl)amino)-N-(1-(2-(2-(2-((2-(2,6-dioxopiperidin-3-yl)-1,3-dioxoisoindolin-4-yl)amino)ethoxy)ethoxy)ethyl)piperidin-4-yl)-5-ethoxy-2-fluorobenzamide] | –
9 | ≤ 0.5 | 60 to 80 | CC(C)Oc1cc(C(=O)NC2CCN(CCOCCOCCNc3cccc4c3C(=O)N(C3CCC(=O)NC3=O)C4=O)CC2)c(F)cc1Nc1ncc2c(n1)N(C1CCCC1)CC(F)(F)C(=O)N2C (stereo not drawn) [Example 91, 4-((9-cyclopentyl-7,7-difluoro-5-methyl-6-oxo-6,7,8,9-tetrahydro-5H-pyrimido[4,5-b][1,4]diazepin-2-yl)amino)-N-(1-(2-(2-(2-((2-(2,6-dioxopiperidin-3-yl)-1,3-dioxoisoindolin-4-yl)amino)ethoxy)ethoxy)ethyl)piperidin-4-yl)-2-fluoro-5-isopropoxybenzamide] | –
10 | ≤ 0.05 | ≥ 80 | CN1C(=O)C(F)(F)CN(C2CCCC2)c2nc(Nc3cc(F)c(C(=O)NC4CCN(CCOCCOCCNc5cccc6c5C(=O)N(C5CCC(=O)NC5=O)C6=O)CC4)cc3OC3CC3)ncc21 (stereo not drawn) [Example 92, 4-((9-cyclopentyl-7,7-difluoro-5-methyl-6-oxo-6,7,8,9-tetrahydro-5H-pyrimido[4,5-b][1,4]diazepin-2-yl)amino)-5-cyclopropoxy-N-(1-(2-(2-(2-((2-(2,6-dioxopiperidin-3-yl)-1,3-dioxoisoindolin-4-yl)amino)ethoxy)ethoxy)ethyl)piperidin-4-yl)-2-fluorobenzamide] | –
11 | > 0.5 | 60 to 80 | CN1C(=O)C(F)(F)CN(C2CCCC2)c2nc(Nc3cc(F)c(C(=O)NC4CCN(CCOCCOCCNc5cccc6c5C(=O)N(C5CCC(=O)NC5=O)C6=O)CC4)cc3OC3CCCC3)ncc21 (stereo not drawn) [Example 95, 4-((9-cyclopentyl-7,7-difluoro-5-methyl-6-oxo-6,7,8,9-tetrahydro-5H-pyrimido[4,5-b][1,4]diazepin-2-yl)amino)-5-(cyclopentyloxy)-N-(1-(2-(2-(2-((2-(2,6-dioxopiperidin-3-yl)-1,3-dioxoisoindolin-4-yl)amino)ethoxy)ethoxy)ethyl)piperidin-4-yl)-2-fluorobenzamide] | –
12 | ≤ 0.05 | ≥ 80 | COc1cc(C(=O)NC2CCN(CCOCCOCCNc3cccc4c3C(=O)N(C3CCC(=O)NC3=O)C4=O)CC2)ccc1Nc1ncc2c(n1)N(C1CCCC1)CC(F)(F)C(=O)N2C (stereo not drawn) [Example 96, 4-((9-cyclopentyl-7,7-difluoro-5-methyl-6-oxo-6,7,8,9-tetrahydro-5H-pyrimido[4,5-b][1,4]diazepin-2-yl)amino)-N-(1-(2-(2-(2-((2-(2,6-dioxopiperidin-3-yl)-1,3-dioxoisoindolin-4-yl)amino)ethoxy)ethoxy)ethyl)piperidin-4-yl)-3-methoxybenzamide] | –
13 | – | < 60 | CN1C(=O)C(F)(F)CN(C2CCCC2)c2nc(Nc3cc(F)c(C(=O)NC4CCN(CCOCCOCCNc5cccc6c5C(=O)N(C5CCC(=O)NC5=O)C6=O)CC4)cc3OCCO)ncc21 (stereo not drawn) [Example 97, 4-((9-cyclopentyl-7,7-difluoro-5-methyl-6-oxo-6,7,8,9-tetrahydro-5H-pyrimido[4,5-b][1,4]diazepin-2-yl)amino)-N-(1-(2-(2-(2-((2-(2,6-dioxopiperidin-3-yl)-1,3-dioxoisoindolin-4-yl)amino)ethoxy)ethoxy)ethyl)piperidin-4-yl)-2-fluoro-5-(2-hydroxyethoxy)benzamide] | –

Row | Structure (SMILES) | DC50 [µM] | Dmax (read-out: Dmax) [%] | Dmax
14 | COc1cc(C(=O)NC2CCN(CCCCCCCCOCC(=O)N[C@H](C(=O)N3C[C@H](O)C[C@H]3C(=O)NCc3ccc(-c4scnc4C)cc3)C(C)(C)C)CC2)c(F)cc1Nc1ncc2c(n1)N(C1CCCC1)CC(F)(F)C(=O)N2C [Example 84] | ≤ 0.5 | – | B (B: Dmax is 80% or less and 60% or more)
15 | CN1C(=O)C(F)(F)CN(C2CCCC2)c2nc(Nc3cc(F)c(C(=O)NC4CCN(CCOCCOCCNc5cccc6c5C(=O)N(C5CCC(=O)NC5=O)C6=O)CC4)cc3OC3CCC3)ncc21 (stereo not drawn) [Example 93, 5-cyclobutoxy-4-((9-cyclopentyl-7,7-difluoro-5-methyl-6-oxo-6,7,8,9-tetrahydro-5H-pyrimido[4,5-b][1,4]diazepin-2-yl)amino)-N-(1-(2-(2-(2-((2-(2,6-dioxopiperidin-3-yl)-1,3-dioxoisoindolin-4-yl)amino)ethoxy)ethoxy)ethyl)piperidin-4-yl)-2-fluorobenzamide] | ≤ 0.05 | ≥ 80 | –
16 | CCC(C)Oc1cc(C(=O)NC2CCN(CCOCCOCCNc3cccc4c3C(=O)N(C3CCC(=O)NC3=O)C4=O)CC2)c(F)cc1Nc1ncc2c(n1)N(C1CCCC1)CC(F)(F)C(=O)N2C (stereo not drawn) [Example 94, 5-(sec-butoxy)-4-((9-cyclopentyl-7,7-difluoro-5-methyl-6-oxo-6,7,8,9-tetrahydro-5H-pyrimido[4,5-b][1,4]diazepin-2-yl)amino)-N-(1-(2-(2-(2-((2-(2,6-dioxopiperidin-3-yl)-1,3-dioxoisoindolin-4-yl)amino)ethoxy)ethoxy)ethyl)piperidin-4-yl)-2-fluorobenzamide] | > 0.5 | 60 to 80 | –
